In patent publication US20110230659A1, “CYCLOBUTYL PURINE DERIVATIVE, ANGIOGENESIS PROMOTING AGENT, LUMEN FORMATION PROMOTING AGENT, NEUROCYTE GROWTH PROMOTING AGENT, AND DRUG” (NATIONAL UNIVERSITY CORPORATION KAGAWA UNIVERSITY, priority 2008, published 2011):

Key:
[1] = system: Human umbilical vein endothelial cells (HUVEC); assay: Measurement of cell proliferation (Cell Counting Kit-8); type: cell-based; conditions: examined in the same manner as in Example 1
Description: Sample solutions were prepared by dissolving 2-Cl—C.OXT-A in physiological saline so as to achieve predetermined concentrations (0.5, 1, 5, 10, 50, 100 mmol/l). Then, the sample solutions containing 2-Cl—C.OXT-A at the predetermined concentrations respectively were added to HuMedia-EB2 media (Kurabo) to which 2 v/v % inactivated fetal bovine serum (FBS) had been added so that their concentrations became 10 v/v %. Thus, cell proliferation media were prepared. The final concentrations of 2-Cl—C.OXT-A in the cell proliferation media were 50, 100, 500 μmol/l, 1, 5, and 10 mmol/1.
Human umbilical vein endothelial cells (HUVEC) suspended in a HuMedia-EG2 medium (Kurabo) were inoculated into each of gelatin-coated wells of a 96-well plate at a density of 3×10^3 cells per well, and cultured for 24 hours. 24 hours after the start of the culture, the medium was removed, and 100 μl of the cell proliferation medium was added to each well. The cells were cultured for another 48 hours. After the completion of the culture, a color reaction was caused using a Cell Counting Kit-8 (Dojindo Laboratories). 2 hours after the start of the reaction, the absorbance at 450 nm was measured using a microplate reader. As a control, a HuMedia-EB2 medium (Kurabo) to which 2 v/v % inactivated fetal bovine serum (FBS) had been added was used instead of the cell proliferation medium to carry out the culture, and a color reaction was caused and the absorbance was measured in the same manner as in the above. Then, using the following equation (I), the relative absorbance in the culture using each of the cell proliferation media containing 2-Cl—C.OXT-A at the predetermined concentrations was calculated.

[2] = system: human umbilical vein endothelial cells (HUVEC) and normal human dermal fibroblasts; assay: Measurement of lumen formation (angiogenesis kit, CD31 immunostaining, lumen area); type: cell-based; conditions: for lumen formation promoting-activity for vascular endothelial cells: examined in the same manner as in Example 1
Description: The measurement of lumen formation was carried out in the following manner using commercially available angiogenesis kits (Kurabo), each including human umbilical vein endothelial cells (HUVEC) and normal human dermal fibroblasts. First, sample solutions were prepared by dissolving 2-Cl—C.OXT-A in physiological saline so as to achieve predetermined concentrations (1, 10, 100, 500 μmol/l, 1, 5, 10, 50 mmol/l). Then, the sample solutions containing 2-Cl—C.OXT-A at the predetermined concentrations respectively were added to media provided in the kits so that their concentrations became 10 v/v %. Thus, lumen formation media were prepared. The final concentrations of 2-Cl—C.OXT-A in the lumen formation media were 0.1, 1, 10, 50, 100, 500 μmol/l, 1 and 5 mmol/1.
Using each of the lumen formation media, the human umbilical vein endothelial cells (HUVEC) and the normal human dermal fibroblasts were cultured for 10 days. After the culture, the human umbilical vein endothelial cells (HUVEC) were immunostained using a lumen staining kit (for CD31 staining, Kurabo). Then, using NIH Image (image processing and analysis software), the area of a portion stained by the immunostaining (lumen area) was measured. As a control, a medium provided in the kit was used instead of the lumen formation medium to carry out the culture, and the cells were immunostained and the lumen area was measured in the same manner as in the above. Then, using the following equation (II), the relative value of lumen area in the culture using each of the lumen formation media containing 2-Cl—C.OXT-A at the predetermined concentrations was calculated.
In the present example, the relative value of lumen area was calculated in the same manner as in the lumen formation measurement in Example 1, except that the measurement was carried out with respect to four groups respectively using media Nos. 5 to 8 prepared by adding 2-Cl—C.OXT-A and PD98059 to media provided in the above-described angiogenesis kits (Kurabo) so that their concentrations became as shown in Table 2 below. In the group using the medium No. 7, the culture was conducted using the medium No. 7 from the first to third days of the culture and the medium No. 5 from the fourth to tenth days of the culture, and in the group using the medium No. 8, the culture was conducted using the medium No. 8 from the first to third days of the culture and the medium No. 6 from the fourth to tenth days of the culture.
In the present example, the relative value of lumen area was calculated in the same manner as in the lumen formation measurement in Example 1, except that the measurement was carried out with respect to six groups respectively using media Nos. 15 to 20 prepared by adding 2-Cl—C.OXT-A, VEGF (positive control), and SU5416 to media provided in the above-described angiogenesis kit (Kurabo) so that their concentrations became as shown in Table 4 below. In the group using the medium No. 16, the culture was conducted using the medium No. 16 from the first to third days of the culture and the medium No. 15 from the fourth to tenth days of the culture; in the group using the medium No. 18, the culture was conducted using the medium No. 18 from the first to third days of the culture and the medium No. 17 from the fourth to tenth days of the culture; and in the group using the medium No. 20, the culture was conducted using the medium No. 20 from the first to third days of the culture and the medium No. 19 from the fourth to tenth days of the culture.

[3] = system: Human umbilical vein endothelial cells (HUVEC); assay: Measurement of cell migration (CytoSelect 24-well Cell Migration Assay); type: cell-based; conditions: examined in the same manner as in Example 1
Description: Measurement of cell migration was carried out in the following manner using CytoSelect 24-well Cell Migration Assay (CBA-100, Cell Biolabs) kits. First, sample solutions were prepared by dissolving 2-Cl—C.OXT-A in physiological saline so as to achieve predetermined concentrations (0.1, 0.5, 1 mmol/l). Then, the sample solutions containing 2-Cl—C.OXT-A at the predetermined concentrations respectively were added to HuMedia-EB2 media (Kurabo) to which 2 v/v % inactivated fetal bovine serum (FBS) had been added so that their concentrations became 10 v/v %. Thus, cell migration media were prepared. The final concentrations of 2-Cl—C.OXT-A in the cell migration media were 10, 50, and 100 μmol/l.
Human umbilical vein endothelial cells (HUVEC) were suspended in a HuMedia-EB2 medium (Kurabo) to which 2 v/v % inactivated fetal bovine serum (FBS) had been added at a density of 0.5×10^6 cells/ml. Thus, a cell suspension was prepared. 300 μl of the cell suspension was added to an upper compartment (i.e., in an insert) of a polycarbonate membrane plate provided in the kit, and 500 μl of the cell migration medium was added to a lower compartment (i.e., in a well) of the plate. Then, the cells were cultured at 37° C. for 24 hours. After the completion of the culture, the membrane on the inner bottom face of the insert was wiped out with a cotton swab to remove the cells on the membrane. Then, cells having migrated to the rear face of the membrane (the membrane on the outer bottom face of the insert) were stained using a staining solution provided in the kit, and then photographed from below the insert. After the photographing, the dye was extracted with an extracting solution provided in the kit, and the absorbance at 560 nm was measured using a microplate reader. As a control, a HuMedia-EB2 medium (Kurabo) to which 2 v/v % inactivated fetal bovine serum (FBS) had been added was used instead of the cell migration medium to carry out the culture, and the cells were stained and the absorbance was measured in the same manner as in the above. Then, using the above equation (I), the relative absorbance in the culture using each of the cell migration media containing 2-Cl—C.OXT-A at the predetermined concentrations was calculated.

[4] = system: ERK; assay: ERK activation (phosphorylation) immunoblot in HUVEC; type: cell-based, human
Description: First, to a HuMedia-EB2 medium (Kurabo) to which 2 v/v % inactivated fetal bovine serum (FBS) had been added, 2-Cl—C.OXT-A was added so that its concentration became 100 μmol/l. Thus, a medium was prepared. Using the medium, human umbilical vein endothelial cells (HUVEC) were cultured for predetermined periods (0, 10, 20, 30, 45, and 60 minutes).
After the culture, cells were collected. The collected cells were lysed by adding a cell lysis buffer (SDS-lysis buffer) thereto, and heat-denatured at 95° C. for 5 minutes. The solubilized protein in an amount corresponding to 5 v/v % of the heat-denatured cell lysate was subjected to electrophoresis using 10% SDS-polyacrylamide gel, whereby the solubilized protein was transferred onto a nitrocellulose membrane (Amersham Biosciences). To 20 ml of TBS-T having the following composition, skim milk (Wako) was added so that its concentration became 5%, thus preparing a blocking solution. The resultant nitrocellulose membrane was immersed in the blocking solution and shaken at room temperature for 1 hour.
(§1) Primary antibodies shown below were diluted 1000-fold by adding them to 5% bovine serum albumin (Sigma)-containing TBS-T, thus preparing a primary antibody solution. The nitrocellulose membrane after being subjected to the blocking was immersed in the primary antibody solution, and shaken at room temperature for 1 hour. The resultant nitrocellulose membrane was immersed in the TBS-T and washed by being shaken for 10 minutes. This washing operation was carried out three times in total.
as §1, with “Secondary” for “Primary”, “20000-fold” for “1000-fold”, “to” for “to 5% bovine serum albumin (Sigma)-containing”, “secondary” for “primary”, “having undergone” for “after being subjected to”, “reaction with the primary antibodies” for “blocking”
The enzymes were visualized with SuperSignal (registered trademark) West Pico Chemiluminescent Substrate (Pierce), and detected by being exposed to RX—U X-ray film (FUJIFILM Corporation). From the detected bands, the respective phosphoenzymes and total enzymes were quantified using an NIH image software. Furthermore, the relative value (−fold) of each phosphoenzyme was calculated by substituting the measured value of the phosphoenzyme into the following equation (III).
Relative value(−fold)of phosphoenzyme=(B/D)/(A/C) (III)
In the present example, the effect of 2-Cl—C.OXT-A of Example 1 and C.OXT-G of Comparative Example 2 on the activation (phosphorylation) of ERK was examined. In the present example, the amount of each enzyme was measured and the relative value (−fold) of each phosphoenzyme was calculated in the same manner as in Example 3, except that: a medium to which 2-Cl—C.OXT-A had been added so as to achieve predetermined concentrations (0, 10 and 100 μmol/l) and a medium to which 100 μmol/l C.OXT-G had been added were used; the culture period after the addition was set to 20 minutes: as the primary antibodies, only an anti-phospho ERK polyclonal antibody (Catalog No. 9101, Cell Signaling Technology) and an anti-total ERK monoclonal antibody (Catalog No. 610408, BD Transduction Laboratory) were used; as the secondary antibody for ERK, a sheep HRP-labeled anti-mouse IgG antibody (Pierce) was used; and as a secondary antibody of pERK, a sheep HRP-labeled anti-rabbit IgG antibody (Pierce) was used.
In the present example, the effect of PD98059 as an MEK inhibitor on the ERK activation (phosphorylation) by 2-Cl—C.OXT-A used in Example 1 was examined. […]

| SMILES | cell proliferation promoting-activity for vascular endothelial cells [1] | lumen formation promoting-activity for vascular endothelial cells [2] | cell migration promoting-activity for vascular endothelial cells [3] | relative value of lumen area compared with control ([2]; Example 7, medium No. 8: 2-Cl—C.OXT-A 10 μmol/l + PD98059 10 nmol/l (first to third days)) | increase in pERK ([4]; Example 6, medium No. 3: only PD98059 100 nmol/l) | ERK activation by 2-Cl—C.OXT-A in the presence of PD98059 ([4]; Example 6, medium No. 4: 2-Cl—C.OXT-A 100 μmol/l + PD98059 100 nmol/l) | amount of pERK ([4]; Example 4, 100 μmol/l C.OXT-G, 20 minutes) |
| --- | --- | --- | --- | --- | --- | --- | --- |
| CC(=O)OCC1CC(n2cnc3c(=O)[nH]c(N)nc32)C1COC(C)=O (stereo not drawn) [chemical formula (17), 9-[trans-trans-2,3-bis(acetyloxymethyl)cyclobutyl]guanine] | exhibited | exhibited | exhibited |  |  |  |  |
| Nc1nc2c(nc(Br)n2C2CC(CO)C2CO)c(=O)[nH]1 (stereo not drawn) [chemical formula (19), 8-bromo-9-[trans-trans-2,3-bis(hydroxymethyl)cyclobutyl]guanine] | exhibited | exhibited | exhibited |  |  |  |  |
| CC(=O)OCC1CC(n2c(Br)nc3c(=O)[nH]c(N)nc32)C1COC(C)=O (stereo not drawn) [chemical formula (18), 8-bromo-9-[trans-trans-2,3-bis(acetyloxymethyl)cyclobutyl]guanine] | exhibited | exhibited | exhibited |  |  |  |  |
| COc1cccc(-c2cc(=O)c3ccccc3o2)c1N [PD98059, reference compound] |  |  |  | about 1 fold | not observed | inhibited |  |
| COc1nc(N)nc2c1nc(OC)n2C1CC(CO)C1CO (stereo not drawn) [chemical formula (21), 2-amino-6,8-dimethoxy-9-[trans-trans-2,3-bis(hydroxymethyl)cyclobutyl]purine] | exhibited | exhibited | exhibited |  |  |  |  |
| CC(=O)OCC1CC(n2c(Cl)nc3c(Cl)nc(N)nc32)C1COC(C)=O (stereo not drawn) [chemical formula (20), 2-amino-6,8-dichloro-9-[trans-trans-2,3-bis(acetyloxymethyl)cyclobutyl]purine] | exhibited | exhibited | exhibited |  |  |  |  |
| Nc1nc2c(ncn2C2CC(CO)C2CO)c(=O)[nH]1 (stereo not drawn) [C.OXT-G, 2-amino-9-[trans-trans-2,3-bis(hydroxymethyl)cyclobutyl]-3H-purine-6-one, reference compound] |  |  |  |  |  |  | not increased |
